Consider 21 molecules from patent US7846959B2, “Raf modulators and methods of use” (Exelixis, Inc., priority 2004, dated 2010).

One test deals with c-Raf (Homo sapiens, UniProt P04049). Description: Luciferase-coupled chemiluminescence kinase assay (ATP consumption), c-Raf. It is filed as biochemical. The note with it: read-out: cRaf-1 IC50. The method, boiled down:
(§1)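 Pre-incub. kinase […] + cpd, 30 min RT (20 mM Tris pH 7.5, 10 mM MgCl2, 0.03% TX-100, 1 mM DTT). Start w/ ATP, 3 h ambient. Luciferase-luciferin mix added and luminescence read. Total ATP use 25-60%. IC50 derived.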

A further test has as its target B-Raf (Homo sapiens, UniProt P15056). Description: Luciferase-coupled chemiluminescence kinase assay (ATP consumption), B-Raf. The test is classed as biochemical. The note with it: read-out: bRaf IC50. The method, boiled down: as §1

Sequence of c-Raf (P04049 whole entry): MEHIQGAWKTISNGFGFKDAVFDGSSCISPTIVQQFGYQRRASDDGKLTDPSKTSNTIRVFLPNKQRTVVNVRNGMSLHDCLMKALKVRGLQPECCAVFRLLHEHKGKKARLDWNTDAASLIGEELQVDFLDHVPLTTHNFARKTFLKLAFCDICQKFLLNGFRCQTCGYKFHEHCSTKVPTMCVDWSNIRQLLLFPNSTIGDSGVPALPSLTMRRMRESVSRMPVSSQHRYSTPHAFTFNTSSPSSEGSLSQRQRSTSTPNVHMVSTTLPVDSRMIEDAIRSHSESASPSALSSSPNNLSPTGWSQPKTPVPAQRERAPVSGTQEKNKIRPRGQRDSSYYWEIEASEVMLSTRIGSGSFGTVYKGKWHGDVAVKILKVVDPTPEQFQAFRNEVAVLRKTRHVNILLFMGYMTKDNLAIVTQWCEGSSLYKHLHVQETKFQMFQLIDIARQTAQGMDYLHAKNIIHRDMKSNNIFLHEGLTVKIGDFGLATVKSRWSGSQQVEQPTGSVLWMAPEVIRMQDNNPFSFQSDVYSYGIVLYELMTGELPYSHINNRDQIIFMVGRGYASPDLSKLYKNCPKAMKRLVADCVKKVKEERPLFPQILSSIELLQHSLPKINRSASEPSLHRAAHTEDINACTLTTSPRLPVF
Sequence of B-Raf (P15056 whole entry): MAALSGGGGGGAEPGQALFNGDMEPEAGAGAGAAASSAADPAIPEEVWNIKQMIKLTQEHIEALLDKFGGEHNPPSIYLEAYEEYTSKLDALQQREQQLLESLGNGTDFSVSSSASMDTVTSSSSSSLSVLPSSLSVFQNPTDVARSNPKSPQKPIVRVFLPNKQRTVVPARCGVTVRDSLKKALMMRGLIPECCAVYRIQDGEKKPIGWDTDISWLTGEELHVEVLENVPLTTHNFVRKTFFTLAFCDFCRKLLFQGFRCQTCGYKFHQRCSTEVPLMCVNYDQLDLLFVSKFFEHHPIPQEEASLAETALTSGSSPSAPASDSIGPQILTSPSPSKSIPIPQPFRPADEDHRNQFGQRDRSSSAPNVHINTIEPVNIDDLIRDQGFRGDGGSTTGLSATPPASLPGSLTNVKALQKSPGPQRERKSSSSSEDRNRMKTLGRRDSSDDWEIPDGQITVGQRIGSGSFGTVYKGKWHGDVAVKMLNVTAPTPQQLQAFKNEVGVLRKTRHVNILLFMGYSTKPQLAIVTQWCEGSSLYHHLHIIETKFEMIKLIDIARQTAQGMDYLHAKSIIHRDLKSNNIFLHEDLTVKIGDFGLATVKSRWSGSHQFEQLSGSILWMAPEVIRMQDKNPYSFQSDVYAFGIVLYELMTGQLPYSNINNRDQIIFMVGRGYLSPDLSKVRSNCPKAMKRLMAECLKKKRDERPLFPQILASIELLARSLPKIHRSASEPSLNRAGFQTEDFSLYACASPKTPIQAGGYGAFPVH

As usually defined, the IC50 is the point on the concentration scale where inhibition reaches its midpoint. Take `CC#CCOC(=O)Nc1nc2cc(C3(O)c4ccccc4C(=O)N3Cc3ccccc3)ccc2[nH]1` (stereo not drawn) [Entry 109, but-2-yn-1-yl {5-[1-hydroxy-3-oxo-2-(phenylmethyl)-2,3-dihydro-1H-isoindol-1-yl]-1H-benzimidazol-2-yl}carbamate]: the IC50 at c-Raf and at B-Raf was less than 100 nM throughout.
For `CC(C)OC(=O)Nc1nc2cc(C3(O)c4ccccc4C(=O)N3Cc3ccccc3)ccc2[nH]1` (stereo not drawn) [Entry 110, 1-methylethyl {5-[1-hydroxy-3-oxo-2-(phenylmethyl)-2,3-dihydro-1H-isoindol-1-yl]-1H-benzimidazol-2-yl}carbamate], the half-maximal inhibitory concentration (IC50) at c-Raf and on B-Raf was less than 100 nM throughout.
As to `COC(=O)Nc1nc2cc(C3(O)c4ccccc4C(=O)N3C3Cc4ccccc4C3)ccc2[nH]1` (stereo not drawn) [Entry 111, methyl {5-[2-(2,3-dihydro-1H-inden-2-yl)-1-hydroxy-3-oxo-2,3-dihydro-1H-isoindol-1-yl]-1H-benzimidazol-2-yl}carbamate], the IC50 on c-Raf and on B-Raf was not below 10000 nM each time.
For the molecule `COC(=O)Nc1nc2cc(C3(O)c4ccccc4C(=O)N3Cc3ccncc3)ccc2[nH]1` (stereo not drawn) [Entry 112, methyl {5-[1-hydroxy-3-oxo-2-(pyridin-4-ylmethyl)-2,3-dihydro-1H-isoindol-1-yl]-1H-benzimidazol-2-yl}carbamate], the IC50 on c-Raf is 1000 to 10000 nM; on B-Raf it was not below 10000 nM.
For `COC(=O)Nc1nc2cc(C3(O)c4ccccc4C(=O)N3Cc3cccnc3)ccc2[nH]1` (stereo not drawn) [Entry 113, methyl {5-[1-hydroxy-3-oxo-2-(pyridin-3-ylmethyl)-2,3-dihydro-1H-isoindol-1-yl]-1H-benzimidazol-2-yl}carbamate], the IC50 at c-Raf and on B-Raf was 100 to 1000 nM in each case.
In the case of `COC(=O)Nc1nc2ccc(C3(O)c4ccccc4C(=O)N3Cc3cccc(F)c3)cc2[nH]1` (stereo not drawn) [Entry 114, methyl (6-{2-[(3-fluorophenyl)methyl]-1-hydroxy-3-oxo-2,3-dihydro-1H-isoindol-1-yl}-1H-benzimidazol-2-yl)carbamate], the IC50 on c-Raf and at B-Raf was less than 100 nM throughout.
Consider `COC(=O)Nc1nc2cc(C3(O)c4ccccc4C(=O)N3c3cccc(C)c3)ccc2[nH]1` (stereo not drawn) [Entry 115, methyl {5-[1-hydroxy-2-(3-methylphenyl)-3-oxo-2,3-dihydro-1H-isoindol-1-yl]-1H-benzimidazol-2-yl}carbamate], for which the IC50 on c-Raf and on B-Raf was less than 100 nM each time.
Turning to `COC(=O)Nc1nc2cc(C3(O)c4ccccc4C(=O)N3Cc3ccccc3OC)ccc2[nH]1` (stereo not drawn) [Entry 116, methyl [5-(1-hydroxy-2-{[2-(methyloxy)phenyl]methyl}-3-oxo-2,3-dihydro-1H-isoindol-1-yl)-1H-benzimidazol-2-yl]carbamate], the IC50 on c-Raf and on B-Raf was 1000 to 10000 nM each time.
As to `COC(=O)Nc1nc2cc(C3(O)c4ccccc4C(=O)N3Cc3cccc(OC)c3)ccc2[nH]1` (stereo not drawn) [Entry 117, methyl [5-(1-hydroxy-2-{[3-(methyloxy)phenyl]methyl}-3-oxo-2,3-dihydro-1H-isoindol-1-yl)-1H-benzimidazol-2-yl]carbamate], the IC50 at c-Raf and at B-Raf was 100 to 1000 nM in each case.
Regarding `COC(=O)Nc1nc2cc(C3(O)c4ccccc4C(=O)N3Cc3ccc(OC)cc3)ccc2[nH]1` (stereo not drawn) [Entry 118, methyl [5-(1-hydroxy-2-{[4-(methyloxy)phenyl]methyl}-3-oxo-2,3-dihydro-1H-isoindol-1-yl)-1H-benzimidazol-2-yl]carbamate], the IC50 on c-Raf and on B-Raf was not below 10000 nM in each case.
With `COC(=O)Nc1nc2ccc(C3(O)c4ccccc4C(=O)N3Cc3ccc(F)cc3)cc2[nH]1` (stereo not drawn) [Entry 119, methyl (6-{2-[(4-fluorophenyl)methyl]-1-hydroxy-3-oxo-2,3-dihydro-1H-isoindol-1-yl}-1H-benzimidazol-2-yl)carbamate], the IC50 at c-Raf and on B-Raf was 100 to 1000 nM each time.
For the molecule `COC(=O)Nc1nc2ccc(C3(O)c4ccccc4C(=O)N3Cc3cccc(Br)c3)cc2[nH]1` (stereo not drawn) [Entry 120, methyl (6-{2-[(3-bromophenyl)methyl]-1-hydroxy-3-oxo-2,3-dihydro-1H-isoindol-1-yl}-1H-benzimidazol-2-yl)carbamate], the IC50 at c-Raf and on B-Raf was less than 100 nM in each case.
Turning to `COC(=O)Nc1nc2cc(C3(O)c4ccccc4C(=O)N3Cc3cccc(I)c3)ccc2[nH]1` (stereo not drawn) [Entry 121, methyl (5-{1-hydroxy-2-[(3-iodophenyl)methyl]-3-oxo-2,3-dihydro-1H-isoindol-1-yl}-1H-benzimidazol-2-yl)carbamate], the IC50 on c-Raf and at B-Raf was 100 to 1000 nM each time.
For `COC(=O)Nc1nc2cc(C3(O)c4ccccc4C(=O)N3Cc3cccc(Cl)c3)ccc2[nH]1` (stereo not drawn) [Entry 122, methyl (5-{2-[(3-chlorophenyl)methyl]-1-hydroxy-3-oxo-2,3-dihydro-1H-isoindol-1-yl}-1H-benzimidazol-2-yl)carbamate], the IC50 on c-Raf and at B-Raf was less than 100 nM throughout.
With `COC(=O)Nc1nc2cc(C3(O)c4ccccc4C(=O)N3Cc3ccccc3F)ccc2[nH]1` (stereo not drawn) [Entry 123, methyl (5-{2-[(2-fluorophenyl)methyl]-1-hydroxy-3-oxo-2,3-dihydro-1H-isoindol-1-yl}-1H-benzimidazol-2-yl)carbamate], the IC50 on c-Raf and at B-Raf was less than 100 nM in each case.
With `COC(=O)Nc1nc2cc(C3(O)c4ccccc4C(=O)N3Cc3ccccn3)ccc2[nH]1` (stereo not drawn) [Entry 124, methyl {5-[1-hydroxy-3-oxo-2-(pyridin-2-ylmethyl)-2,3-dihydro-1H-isoindol-1-yl]-1H-benzimidazol-2-yl}carbamate], the half-inhibitory concentration (IC50) at c-Raf and at B-Raf was 100 to 1000 nM in each case.
With `O=C(Nc1nc2cc(C3(O)c4ccccc4C(=O)N3Cc3ccccc3)ccc2[nH]1)OCc1ccccc1` (stereo not drawn) [Entry 125, phenylmethyl {5-[1-hydroxy-3-oxo-2-(phenylmethyl)-2,3-dihydro-1H-isoindol-1-yl]-1H-benzimidazol-2-yl}carbamate], the IC50 at c-Raf and at B-Raf was less than 100 nM throughout.
Regarding `O=C(Nc1nc2cc(C3(O)c4ccccc4C(=O)N3Cc3ccccc3)ccc2[nH]1)OCCF` (stereo not drawn) [Entry 126, 2-fluoroethyl {5-[1-hydroxy-3-oxo-2-(phenylmethyl)-2,3-dihydro-1H-isoindol-1-yl]-1H-benzimidazol-2-yl}carbamate], the half-maximal inhibitory concentration (IC50) on c-Raf and at B-Raf was less than 100 nM in each case.
As to `CCCOC(=O)Nc1nc2cc(C3(O)c4ccccc4C(=O)N3Cc3ccccc3)ccc2[nH]1` (stereo not drawn) [Entry 127, propyl {5-[1-hydroxy-3-oxo-2-(phenylmethyl)-2,3-dihydro-1H-isoindol-1-yl]-1H-benzimidazol-2-yl}carbamate], the IC50 at c-Raf and on B-Raf was less than 100 nM each time.
With `COC(=O)Nc1nc2cc(C3(O)c4ccccc4C(=O)N3c3ccc(OC)cc3)ccc2[nH]1` (stereo not drawn) [Entry 128, methyl (5-{1-hydroxy-2-[4-(methyloxy)phenyl]-3-oxo-2,3-dihydro-1H-isoindol-1-yl}-1H-benzimidazol-2-yl)carbamate], the IC50 at c-Raf and on B-Raf was 1000 to 10000 nM in each case.
For the molecule `COC(=O)Nc1nc2cc(C3(O)c4ccccc4C(=O)N3Cc3ccccc3Cl)ccc2[nH]1` (stereo not drawn) [Entry 129, methyl (5-{2-[(2-chlorophenyl)methyl]-1-hydroxy-3-oxo-2,3-dihydro-1H-isoindol-1-yl}-1H-benzimidazol-2-yl)carbamate], the results for the IC50 at c-Raf and on B-Raf were less than 100 nM and 100 to 1000 nM, respectively.
